Here are results for 27 molecules from article PMC7470124, “Efficient synthesis, biological evaluation, and docking study of isatin based derivatives as caspase inhibitors” (Journal of Enzyme Inhibition and Medicinal Chemistry, 2020).

One data set has as its system caspase-3 and −7. The data set is described as follows: Caspase-3 and -7 inhibition, acetyl-DEVD-AMC fluorogenic substrate assay (text does not say which caspase). The class given is biochemical. The note with it: for inhibition percentage: at 20 μg/ml, caspase not given; for Selectivity Index (SI): IC50 caspase-7/IC50 caspase-3, greater than 1.5 = selective inhibitor of caspase-3; for inhibitory activity against caspase-3 and −7 (in words): compared to Ac-DEVD-CHO. As for the experimental part:
(§1) The inhibitory activities of newly synthesised 2–(2,3-dioxoindolin-1-yl)-N-substituted phenyl acetamide, 1-(prop-2-yn-1-yl)indoline-2,3-dione and two series of compounds containing 1-(pyrrolidinyl)sulphonyl and 2-(phenoxymethyl)pyrrolidin-1-yl)sulphonyl substitution at C^5 position of isatin core (B, C, Table 1) against caspase-3 and −7 were evaluated by using the acetyl-DEVD-AMC fluorogenic substrate assay. The results are expressed as inhibition percentage and IC50 values in Table 1. We used Ac-DEVD-CHO as the positive control.
(§2) The activity assay of caspase-3 was performed in a system of 50 µL containing 150 mM NaCl, 1 mM EDTA, 2 mM DTT, 50 mM HEPES pH 7.4, 10 µM Ac-DEVD-AMC (Bachem Bioscience, Philadelphia, PA, USA) and 2 nM caspase-3 in the 1 µL DMSO. Caspase-3 was incubated with synthesised compounds in 384-well plates for 10 min. […] The enzymatic activity of the caspase-3 was measured based on production of a fluorogenic substrate, 7-amino-4-methyl coumarin, which was monitored for 10 min and detected using an EnVision (PerkinElmer, Wellesley, MA, USA) at λex = 360 nm and λem= 460 nm. The initial rate of hydrolysis was determined using the early linear region of the enzymatic reaction curve.

Another data set has as its target T1, caspase-3 (Homo sapiens, UniProt P42574).
T1 sequence (P42574 29-175 limits assumed): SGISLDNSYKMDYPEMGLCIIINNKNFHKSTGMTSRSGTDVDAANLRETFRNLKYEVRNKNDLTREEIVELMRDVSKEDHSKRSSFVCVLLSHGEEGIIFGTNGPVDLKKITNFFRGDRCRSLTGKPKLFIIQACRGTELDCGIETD
T1 sequence (P42574 176-277 limits assumed): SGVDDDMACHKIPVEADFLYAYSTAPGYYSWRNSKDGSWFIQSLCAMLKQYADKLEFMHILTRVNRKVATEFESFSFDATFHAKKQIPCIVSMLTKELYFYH
The data set is described as follows: Caspase-3 inhibition assay (Ac-DEVD-AMC fluorogenic substrate). The class given is biochemical. On the procedure: as §1, §2

Entries after “also recorded” stand apart in the source; their conditions may differ.

By melting point is commonly meant the temperature of the solid-liquid transition. Take `C#CCN1C(=O)C(=O)c2ccccc21` [11a, 1-(Prop-2-yn-1-yl)indoline-2,3-dione]: the melting point was 158 to 160 °C.
In turn, `O=C(CN1C(=O)C(=O)c2ccccc21)Nc1ccccc1` [11b, 2–(2,3-Dioxoindolin-1-yl)-N-phenylacetamide] came in with a melting point of 174 to 176 °C.
As for `O=C(CN1C(=O)C(=O)c2ccccc21)Nc1ccc(F)cc1` [11c, 2–(2,3-Dioxoindolin-1-yl)-N-(4-fluorophenyl)acetamide], in the data set on caspase-3 and −7, the inhibition percentage is 71%.
In turn, `O=C(CN1C(=O)C(=O)c2ccccc21)Nc1ccc(Cl)cc1` [11d, N-(4-Chlorophenyl)-2–(2,3-dioxoindolin-1-yl)acetamide] returned a melting point of 177 to 179 °C.
On the same count and under the same terms, then `O=C(CN1C(=O)C(=O)c2ccccc21)Nc1ccc(Br)cc1` [11e, N-(4-Bromophenyl)-2–(2,3-dioxoindolin-1-yl)acetamide], with 179 to 181 °C.
Turning to `O=C(CN1C(=O)C(=O)c2ccccc21)Nc1ccccc1[N+](=O)[O-]` [11f, 2–(2,3-Dioxoindolin-1-yl)-N-(2-nitrophenyl)acetamide], the melting point was in the range of 186 to 188 °C. In the data set on caspase-3 and −7, this molecule gave an inhibition percentage of 5%.
`O=C(CN1C(=O)C(=O)c2ccccc21)Nc1cccc([N+](=O)[O-])c1` [11g, 2–(2,3-Dioxoindolin-1-yl)-N-(3-nitrophenyl)acetamide] gave a melting point of 191 to 192 °C.
`O=C(CN1C(=O)C(=O)c2ccccc21)Nc1ccc([N+](=O)[O-])cc1` [11h, 2–(2,3-Dioxoindolin-1-yl)-N-(4-nitrophenyl)acetamide] showed a melting point of 179 to 181 °C.
Same read-out and setting: then `O=C(CN1C(=O)C(=O)c2ccccc21)Nc1ccc(OC(F)(F)F)cc1` [11i, 2–(2,3-Dioxoindolin-1-yl)-N-(4-(trifluoromethoxy)phenyl)acetamide], with 209 to 211 °C; and `Cc1ccc(NC(=O)CN2C(=O)C(=O)c3ccccc32)cc1` [11j, 2–(2,3-Dioxoindolin-1-yl)-N-(p-tolyl)acetamide], with 196 to 198 °C; and `COc1ccc(NC(=O)CN2C(=O)C(=O)c3ccccc32)cc1` [11k, 2–(2,3-Dioxoindolin-1-yl)-N-(4-methoxyphenyl)acetamide], with 201 to 203 °C.
For `C#CCN1C(=O)C(=O)c2cc(S(=O)(=O)N3CCCC3)ccc21` [19a, 1-(Prop-2-yn-1-yl)-5-(pyrrolidin-1-ylsulfonyl)indoline-2,3-dione], the melting point is 203 to 205 °C. Also, the “Selectivity Index (SI)” value in the data set on caspase-3 and −7 is given as “greater than 1.5”.
For the molecule `O=C(CN1C(=O)C(=O)c2cc(S(=O)(=O)N3CCCC3)ccc21)Nc1ccc(F)cc1` [19c, 2–(2,3-Dioxo-5-(pyrrolidin-1-ylsulfonyl)indolin-1-yl)-N-(4-fluorophenyl)acetamide], the melting point lay in the range of 191 to 193 °C.
Same read-out and setting: then `O=C(CN1C(=O)C(=O)c2cc(S(=O)(=O)N3CCCC3)ccc21)Nc1ccccc1[N+](=O)[O-]` [19f, 2–(2,3-Dioxo-5-(pyrrolidin-1-ylsulfonyl)indolin-1-yl)-N-(2-nitrophenyl)acetamide], with 195 to 197 °C; and `O=C(CN1C(=O)C(=O)c2cc(S(=O)(=O)N3CCCC3)ccc21)Nc1ccc(OC(F)(F)F)cc1` [19i, 2–(2,3-Dioxo-5-(pyrrolidin-1-ylsulfonyl)indolin-1-yl)-N-(4-(trifluoromethoxy)phenyl)acetamide], with 266 to 267 °C; and `C#CCN1C(=O)C(=O)c2cc(S(=O)(=O)N3CCC[C@H]3COc3ccccc3)ccc21` [20a, (S)-5-((2-(Phenoxymethyl)pyrrolidin-1-yl)sulphonyl)-1-(prop-2-yn-1-yl)indoline-2,3-dione], with 282 to 284 °C.
Molecule `O=C(CN1C(=O)C(=O)c2cc(S(=O)(=O)N3CCC[C@H]3COc3ccccc3)ccc21)Nc1ccccc1` [20b, (S)-2–(2,3-Dioxo-5-((2-(phenoxymethyl)pyrrolidin-1-yl)sulphonyl)indolin-1-yl)-N-phenylacetamide] gave a melting point of 238 to 240 °C.
`O=C(CN1C(=O)C(=O)c2cc(S(=O)(=O)N3CCC[C@H]3COc3ccccc3)ccc21)Nc1ccc(F)cc1` [20c, (S)-2–(2,3-Dioxo-5-((2-(phenoxymethyl)pyrrolidin-1-yl)sulphonyl)indolin-1-yl)-N-(4-fluorophenyl)acetamide] displayed a melting point of 108 to 110 °C. Besides, in the data set with caspase-3 and −7, the “Selectivity Index (SI)” value is listed as “greater than 1.5”.
In the case of `O=C(CN1C(=O)C(=O)c2cc(S(=O)(=O)N3CCC[C@H]3COc3ccccc3)ccc21)Nc1ccc(Cl)cc1` [20d, (S)-N-(4-chlorophenyl)-2–(2,3-dioxo-5-((2-(phenoxymethyl)pyrrolidin-1-yl)sulphonyl)indolin-1-yl)acetamide], the melting point was in the range of 209 to 211 °C. At caspase-3, this molecule gave an IC50 of 2330 nM. For the same molecule, in the data set on caspase-3 and −7, the “Selectivity Index (SI)” value was “greater than 1.5”; the “inhibitory activity against caspase-3 and −7 (in words)” value (“inhibitory activity” below) is on record as “most active compound; also recorded: moderate inhibitory activity”.
Take `O=C(CN1C(=O)C(=O)c2cc(S(=O)(=O)N3CCC[C@H]3COc3ccccc3)ccc21)Nc1ccc(Br)cc1` [20e, (S)-N-(4-Bromophenyl)-2–(2,3-dioxo-5-((2-(phenoxymethyl)pyrrolidin-1-yl)sulphonyl)indolin-1-yl)acetamide]: the melting point lay in the range of 196 to 198 °C. Moreover, in the data set on caspase-3 and −7, the “Selectivity Index (SI)” value was “greater than 1.5”.
`O=C(CN1C(=O)C(=O)c2cc(S(=O)(=O)N3CCC[C@H]3COc3ccccc3)ccc21)Nc1ccccc1[N+](=O)[O-]` [20f, (S)-2–(2,3-Dioxo-5-((2-(phenoxymethyl)pyrrolidin-1-yl)sulphonyl)indolin-1-yl)-N-(2-nitrophenyl)acetamide] yielded a melting point of 180 to 182 °C. Further, the “inhibitory activity” value with caspase-3 and −7 was “moderated caspase-3 and −7 inhibitors”.
On to `O=C(CN1C(=O)C(=O)c2cc(S(=O)(=O)N3CCC[C@H]3COc3ccccc3)ccc21)Nc1cccc([N+](=O)[O-])c1` [20g, (S)-2–(2,3-Dioxo-5-((2-(phenoxymethyl)pyrrolidin-1-yl)sulphonyl)indolin-1-yl)-N-(3-nitrophenyl)acetamide], for which the melting point was 181 to 183 °C.
Regarding `O=C(CN1C(=O)C(=O)c2cc(S(=O)(=O)N3CCC[C@H]3COc3ccccc3)ccc21)Nc1ccc([N+](=O)[O-])cc1` [20h, (S)-2–(2,3-Dioxo-5-((2-(phenoxymethyl)pyrrolidin-1-yl)sulphonyl)indolin-1-yl)-N-(4-nitrophenyl)acetamide], the melting point was in the range of 162 to 164 °C.
`O=C(CN1C(=O)C(=O)c2cc(S(=O)(=O)N3CCC[C@H]3COc3ccccc3)ccc21)Nc1ccc(OC(F)(F)F)cc1` [20i, (S)-2–(2,3-Dioxo-5-((2-(phenoxymethyl)pyrrolidin-1-yl)sulphonyl)indolin-1-yl)-N-(4-(trifluoromethoxy)phenyl)acetamide] registered a melting point of 218 to 220 °C.
Consider `Cc1ccc(NC(=O)CN2C(=O)C(=O)c3cc(S(=O)(=O)N4CCC[C@H]4COc4ccccc4)ccc32)cc1` [20j, (S)-2–(2,3-Dioxo-5-((2-(phenoxymethyl)pyrrolidin-1-yl)sulphonyl)indolin-1-yl)-N-(p-tolyl)acetamide], for which the melting point fell in the range of 209 to 211 °C. Besides, the “inhibitory activity” value with caspase-3 and −7 is “lowest enzymatic inhibition”.
`COc1ccc(NC(=O)CN2C(=O)C(=O)c3cc(S(=O)(=O)N4CCC[C@H]4COc4ccccc4)ccc32)cc1` [20k, (S)-2–(2,3-Dioxo-5-((2-(phenoxymethyl)pyrrolidin-1-yl)sulphonyl)indolin-1-yl)-N-(4-methoxyphenyl)acetamide] came in with a melting point of 204 to 206 °C. Further, the “inhibitory activity” value in the data set on caspase-3 and −7 is “lowest enzymatic inhibition”.
In the case of Ac-DEVD-CHO [reference compound], the IC50 on caspase-3 and −7 (caspase-3 and −7, Mean ± SD of three experiments, read-out: IC50 (positive control / studied compounds)) worked out at 16 ± 2 nM.
